Patent US8338039B2, “Fuel cell” (Sony Corporation, priority 2009, dated 2012)

Legend:
[1] = Dissolution of additive in the fuel solution; format: physicochemical; conditions: fuel solution containing 1% ethanol; 1% DEET
Experimental: The fuel solution is a pH buffer solution composed of 2.0 M imidazole/H2SO4, 0.4 M glucose, and ethanol, pH 7.0. […] The plant essential oil is added to the fuel solution and suspended therein by stirring immediately before current measurement.

[2] = test system: anode having the enzyme catalyst (glucose dehydrogenase, diaphorase); test: Current generated by the enzyme-catalyst anode of the fuel cell with additive in the fuel solution; format: biochemical
Experimental: Tests were conducted under the following conditions to investigate how the plant essential oil added to the fuel solution affects the fuel cell performance. The plant essential oils used for the test are nutmeg oil, lemongrass oil, and palmarosa oil. The concentration of each plant essential oil in the fuel solution is 1%. The control substance is N,N-diethyl-m-toluamide (DEET), which is an active ingredient used for most insect repellent sprays. The concentration of DEET in the fuel solution is 1%. Incidentally, the concentration of DEET in the formulation is required to be less than 12% according to the Japanese regulation. The fuel solution is a pH buffer solution composed of 2.0 M imidazole/H2SO4, 0.4 M glucose, and ethanol, pH 7.0. […] The plant essential oil is added to the fuel solution and suspended therein by stirring immediately before current measurement. The electrode is one which is made of carbon fiber (1 mm thick). The electrode is coated with an immobilizing agent which is composed of the following ingredients. A mixture of 1.0 PLL and 0.0625 glutaraldehyde, 75.2 μL A solution of glucose dehydrogenase (150 mg/mL), 12.4 μL A solution of diaphorase (150 mg/mL), 1.6 μL A solution of NADH (40.96 mg/mL), 4 μL A solution of AQ2S (60 mM), 37.4 μL An enzyme produced by Amano Enzyme Co., Ltd. is immobilized on the above-mentioned immobilizing agent. […]

solubility in the fuel solution [1]: dissolves 1% DEET completely
Compound: CCN(CC)C(=O)c1cccc(C)c1 [DEET, N,N-diethyl-m-toluamide]
current value produced by the enzymatic catalyst at the anode, compared with fuel solution not incorporated with the additive ([2]; 1% additive in fuel solution (2.0 M imidazole/H2SO4, 0.4 M glucose, ethanol, pH 7.0), carbon fiber anode): lower current value
effect on the fuel cell performance ([2]; added to the fuel solution at 1%): deteriorates the fuel cell performance
